Results published in the CheMixHub ionic liquid set.
± gives the uncertainty stated by the source.

Test: xn = mol fraction of the nth substance listed

CC[S+](CC)CCOCCOCCOCC[S+](CC)CC.N#C[N-]C#N.N#C[N-]C#N + CC[n+]1ccn(C)c1.N#C[N-]C#N + O=S(=O)([N-]S(=O)(=O)C(F)(F)F)C(F)(F)F.[Li+]
100 kPa, x1 = 0.2479, x2 = 0.6613
Settings	electrical conductivity [S/m]
298 K	0.454 ± 0.018
303 K	0.548 ± 0.022
313 K	0.811 ± 0.032
323 K	1.09 ± 0.044
333 K	1.4 ± 0.056
343 K	1.78 ± 0.071

CCCCCCCCOS(=O)(=O)[O-].CC[n+]1ccn(C)c1 + O
101 kPa, frequency 0.0005 MHz
Settings	electrical conductivity [S/m]
263.15 K, x2 = 0.8103	0.26 ± 0.016
288.15 K, x2 = 0.7822	0.678 ± 0.041
298.15 K, x2 = 0.8236	1.14 ± 0.069
303.15 K, x2 = 0.8236	1.32 ± 0.08
303.15 K, x2 = 0.8384	1.52 ± 0.092
313.15 K, x2 = 0.8103	1.65 ± 0.099
323.15 K, x2 = 0.8236	2.2 ± 0.13
333.15 K, x2 = 0.7822	2.4 ± 0.14
333.15 K, x2 = 0.8236	2.77 ± 0.17
343.15 K, x2 = 0.7822	2.9 ± 0.17

101 kPa
Settings	viscosity [mPa·s]
298.15 K, x2 = 0.8236	63.5 ± 1.4
303.15 K, x2 = 0.8236	48.9 ± 1.1
303.15 K, x2 = 0.8384	46 ± 1
313.15 K, x2 = 0.8103	32.07 ± 0.71
333.15 K, x2 = 0.7822	15.7 ± 0.35
343.15 K, x2 = 0.7822	11.31 ± 0.25

CCCC[n+]1ccn(C)c1.N#C[C-](C#N)C#N + CCCC[n+]1ccn(C)c1.O=S(=O)([N-]S(=O)(=O)C(F)(F)F)C(F)(F)F
viscosity [mPa·s], 100 kPa
Settings	x2 = 0	x2 = 0.252	x2 = 0.501	x2 = 0.751
283.15 K	58.2 ± 3	65.9 ± 3.4	77.3 ± 3.9	88.9 ± 4.5
288.15 K	44.5 ± 2.3	50.6 ± 2.6	59.4 ± 3	68.5 ± 3.5
293.15 K	34.9 ± 1.8	39.8 ± 2	46.8 ± 2.4	53.9 ± 2.7
298.15 K	28 ± 1.4	31.9 ± 1.6	37.6 ± 1.9	43.1 ± 2.2
303.15 K	22.9 ± 1.2	26.1 ± 1.3	30.7 ± 1.6	35.2 ± 1.8
308.15 K	18.98 ± 0.97	21.6 ± 1.1	25.4 ± 1.3	29.1 ± 1.5
313.15 K	15.99 ± 0.82	18.22 ± 0.93	21.4 ± 1.1	24.4 ± 1.2
318.15 K	13.66 ± 0.7	15.53 ± 0.79	18.22 ± 0.92	20.7 ± 1
323.15 K	11.8 ± 0.6	13.39 ± 0.68	15.72 ± 0.8	17.75 ± 0.9
328.15 K	10.29 ± 0.53	11.66 ± 0.59	13.61 ± 0.69	15.38 ± 0.78
333.15 K	9.06 ± 0.46	10.25 ± 0.52	11.9 ± 0.6	13.44 ± 0.68
338.15 K	8.04 ± 0.41	9.08 ± 0.46	10.54 ± 0.53	11.84 ± 0.6
343.15 K	7.19 ± 0.37	8.1 ± 0.41	9.38 ± 0.48	10.5 ± 0.53
348.15 K	6.47 ± 0.33	7.27 ± 0.37	8.42 ± 0.43	9.39 ± 0.47
353.15 K	5.86 ± 0.3	6.57 ± 0.33	7.55 ± 0.38	8.44 ± 0.43
358.15 K	5.34 ± 0.27	5.97 ± 0.3	6.86 ± 0.35	7.62 ± 0.38
363.15 K	4.88 ± 0.25	5.46 ± 0.28	6.29 ± 0.32	6.93 ± 0.35
